# Data from patent US10323021B2, “Triazoles as NR2B receptor inhibitors” (Janssen Pharmaceuticals, Inc., priority 2014, dated 2019).
# How the values were obtained:
# [1] = molecular target: rat NR1/NR2B receptor (Rattus norvegicus (Rat), UniProt P35439+Q00960); experiment: NR2B binding assay: inhibition of specific [3H]-Ifenprodil binding to the rat NR1/NR2B receptor; conditions: for inhibition at 1 µM: 1 μM test compound, read-out: NR2B binding assay % INH @ 1 μM; for inhibition at 10 µM: 10 μM test compound, read-out: NR2B binding assay % INH @ 10 μM
# Experimental: Inhibition of Specific Binding to the Rat NR1/NR2B Receptor
# Male Wistar rats (180 to 200 g) were killed by suffocation in a CO2 chamber for two minutes. Whole brains without cerebellum were removed and dissected on ice, placed into closed vials and stored at −70° C.
# Membrane fractions were prepared and tested using standard techniques. At the time of the assay, 1 g of the brains was placed into 25 ml of 50 mM Tris/10 mM EDTA buffer, pH 7.1, (25 vol. per g of original tissue) and homogenized for 30 sec at 20000 rpm with an Ultraturrax T25 (Jahnke & Kunkel, IKA-Labortechnik, Staufen, Germany). The homogenate was centrifuged at 4° C. for 10 min at 48000 g (OPTIMA L-70, Beckman, Palo Alto, Calif. 94304, USA).
# The supernatant was discarded and the pellet was homogenized on ice for 30 sec at 20000 rpm with an Ultraturrax and again centrifuged at 48000 g for 30 minutes at 4° C. The resulted pellet was resuspended in 25 ml of 50 mM Tris/10 mM EDTA buffer, homogenized for 30 sec with an Ultraturrax, aliquoted, frozen at −70° C. and stored until use.
# After thawing on the day of the assay, a 5 ml membrane aliquot was centrifuged at 48000 g for 30 min at 4° C. The pellet was resuspended in 5 ml of 5 mM Tris/1 mM EDTA buffer, pH 7.4, homogenized for 30 sec at 20000 rpm with an Ultraturrax and centrifuged at 48000 g for 30 min at 4° C. This was repeated twice. The final pellet was homogenized in 5 ml of 5 mM Tris/1 mM EDTA buffer at 4° C. with an Ultraturrax and used for the Ifenprodil-binding assay as described in the following.
# Nonspecific binding was estimated in the presence of […] CP101.606. The samples were incubated for 60 min. at 4° C.
# The incubation was terminated by filtration of the membrane preparations using Filtermat B (Pharmacia, Uppsala Sweden) and a Micro Cell Harvester (Skatron, Lier, Norway). The Filtermat B had been presoaked with 1% polyethylene imine and carefully washed with 50 mM Tris/HCl-buffer pH 7.7 after the filtration to separate free and bound radioactivity.
# The optimal amount of membrane preparation in the assay had been determined and optimized for each membrane preparation separately before the test.
# For pipetting of the incubation mixture we routinely used the robot Biomek2000 (Fa. Beckman).
# For determination of IC50 values the Hill-plot, 2-parameter-model was used.
# [2] = molecular target: hERG receptor (Homo sapiens (Human), UniProt Q12809); experiment: HERGBD: inhibition of specific [3H]-Dofetilide binding to the hERG receptor; conditions: HEK hERG membranes, Hill-plot 2-parameter model
# hERG receptor, sequence (Q12809 whole entry): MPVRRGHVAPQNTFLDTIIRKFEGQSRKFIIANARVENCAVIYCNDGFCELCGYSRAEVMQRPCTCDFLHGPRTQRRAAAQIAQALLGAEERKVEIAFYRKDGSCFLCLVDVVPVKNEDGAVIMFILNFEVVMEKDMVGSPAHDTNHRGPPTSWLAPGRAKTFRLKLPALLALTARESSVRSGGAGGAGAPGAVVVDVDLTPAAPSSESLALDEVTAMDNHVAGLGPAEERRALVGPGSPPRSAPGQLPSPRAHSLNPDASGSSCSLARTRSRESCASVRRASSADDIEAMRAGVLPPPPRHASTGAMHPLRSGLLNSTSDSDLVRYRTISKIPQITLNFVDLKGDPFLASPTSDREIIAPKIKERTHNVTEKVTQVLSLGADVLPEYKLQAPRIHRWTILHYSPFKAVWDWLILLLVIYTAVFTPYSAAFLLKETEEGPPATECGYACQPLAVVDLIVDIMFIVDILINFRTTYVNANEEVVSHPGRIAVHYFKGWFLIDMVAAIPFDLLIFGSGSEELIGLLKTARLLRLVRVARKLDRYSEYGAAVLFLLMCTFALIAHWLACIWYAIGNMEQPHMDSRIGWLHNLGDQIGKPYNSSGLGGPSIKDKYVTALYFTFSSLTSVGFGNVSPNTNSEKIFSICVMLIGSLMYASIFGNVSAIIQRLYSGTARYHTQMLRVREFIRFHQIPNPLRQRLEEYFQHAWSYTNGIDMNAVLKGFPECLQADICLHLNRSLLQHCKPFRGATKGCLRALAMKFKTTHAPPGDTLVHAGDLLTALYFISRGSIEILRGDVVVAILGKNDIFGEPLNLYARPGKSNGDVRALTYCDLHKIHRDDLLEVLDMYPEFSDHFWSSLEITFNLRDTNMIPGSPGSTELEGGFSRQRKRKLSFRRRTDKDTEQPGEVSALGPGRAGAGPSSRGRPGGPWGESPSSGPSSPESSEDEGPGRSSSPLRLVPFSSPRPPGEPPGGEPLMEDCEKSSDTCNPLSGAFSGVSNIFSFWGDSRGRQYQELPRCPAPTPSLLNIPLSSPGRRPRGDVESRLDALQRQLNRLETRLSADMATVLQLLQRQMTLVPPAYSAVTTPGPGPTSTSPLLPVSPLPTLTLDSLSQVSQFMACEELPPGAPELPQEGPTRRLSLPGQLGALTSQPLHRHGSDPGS
# Experimental: Inhibition of Specific Binding to the hERG—Receptor (HERGBD)
# A HEK cell line with stable transfected human ERG receptor was used for the assay. The cells were grown adherently and maintained in DULBECCOS' MEM medium with 10% FBS, 1% non-essential amino acids, 1% Penicillin/Streptomycin and 400 μg/ml G418 (Calbiochem).
# For binding assays and membrane preparations the cell culture medium was removed, cells were washed with PBS. Crude membranes for radioligand binding experiments were prepared by scraping the cells off the dishes in ice cold 20 mM HEPES/0.1 mM KCl/pH 7.2. […]
# Binding was terminated by filtration of the incubated membrane preparations using Filtermat B (Pharmacia, Uppsala Sweden) and a Micro Cell Harvester (Skatron, Lier, Norway). The Filtermat B had been presoaked with 1% polyethylenimine and carefully washed with 0.05 M Tris/HCl-buffer pH=7.7 after the filtration to separate free and bound radioactivity. The filters were counted in a scintillation counter (Betaplate 1205, Berthold, Wildbad, Germany) in order to determine the specific binding of [^3H]-Dofetilide.
# The optimal amount of membrane preparation in the assay was determined and optimized for each membrane preparation separately in front of using the membranes in compound testing.
# The IC50 values in the table below were determined using the Hill-plot, 2-parameter-model.
# rat NR1/NR2B receptor, sequence (Q00960 27-1482, other chains not shown): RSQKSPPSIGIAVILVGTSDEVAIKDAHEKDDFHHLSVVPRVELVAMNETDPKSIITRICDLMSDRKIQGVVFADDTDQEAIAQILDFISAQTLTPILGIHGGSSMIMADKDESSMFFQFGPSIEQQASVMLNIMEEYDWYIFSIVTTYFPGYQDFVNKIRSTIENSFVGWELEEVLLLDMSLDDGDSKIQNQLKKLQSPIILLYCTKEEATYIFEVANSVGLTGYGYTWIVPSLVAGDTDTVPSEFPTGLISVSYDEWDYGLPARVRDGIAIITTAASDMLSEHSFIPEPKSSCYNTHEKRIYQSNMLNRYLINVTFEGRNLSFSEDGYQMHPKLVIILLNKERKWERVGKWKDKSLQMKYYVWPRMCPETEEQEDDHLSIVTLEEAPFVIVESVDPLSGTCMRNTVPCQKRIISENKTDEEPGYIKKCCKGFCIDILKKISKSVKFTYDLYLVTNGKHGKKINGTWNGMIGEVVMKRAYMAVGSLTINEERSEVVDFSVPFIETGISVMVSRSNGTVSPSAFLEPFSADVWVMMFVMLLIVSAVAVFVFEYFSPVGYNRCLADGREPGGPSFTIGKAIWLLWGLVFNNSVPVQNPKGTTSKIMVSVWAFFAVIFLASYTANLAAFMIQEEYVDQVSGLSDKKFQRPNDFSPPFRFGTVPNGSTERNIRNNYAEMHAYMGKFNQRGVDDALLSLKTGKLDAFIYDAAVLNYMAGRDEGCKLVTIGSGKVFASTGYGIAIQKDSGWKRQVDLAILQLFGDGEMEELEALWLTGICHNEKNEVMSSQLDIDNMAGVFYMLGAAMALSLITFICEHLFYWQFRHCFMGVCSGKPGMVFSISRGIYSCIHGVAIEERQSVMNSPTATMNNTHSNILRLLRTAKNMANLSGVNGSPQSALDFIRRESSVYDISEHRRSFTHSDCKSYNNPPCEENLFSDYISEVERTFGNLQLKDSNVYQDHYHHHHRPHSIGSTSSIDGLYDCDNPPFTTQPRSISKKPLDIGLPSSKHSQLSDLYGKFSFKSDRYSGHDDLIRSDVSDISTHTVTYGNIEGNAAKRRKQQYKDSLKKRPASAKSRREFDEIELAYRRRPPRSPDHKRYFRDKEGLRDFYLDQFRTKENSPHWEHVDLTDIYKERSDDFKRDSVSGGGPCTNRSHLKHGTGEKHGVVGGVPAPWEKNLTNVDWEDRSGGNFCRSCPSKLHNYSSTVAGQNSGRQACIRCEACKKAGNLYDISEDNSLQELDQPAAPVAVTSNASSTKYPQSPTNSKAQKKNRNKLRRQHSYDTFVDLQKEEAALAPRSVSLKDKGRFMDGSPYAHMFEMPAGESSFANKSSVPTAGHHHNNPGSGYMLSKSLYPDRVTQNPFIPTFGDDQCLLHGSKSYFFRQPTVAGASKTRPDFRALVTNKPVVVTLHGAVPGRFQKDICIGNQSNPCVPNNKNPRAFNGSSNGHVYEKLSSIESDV
SMILES,inhibition at 1 µM [1] [%],inhibition at 10 µM [1] [%],IC50 [2] [µM]
"Cc1nc(CO)n(Cc2cn(-c3ccccc3)nn2)n1 [Example 47, 4-(5-Hydroxymethyl-3-methyl-[1,2,4]triazol-1-ylmethyl)-1-phenyl-1H-[1,2,3]triazole]",33.8,-8.4,–
"CC(C)c1ncnn1Cc1cn(-c2ccc(Cl)cc2)nn1 [Example 7, 1-(4-Chloro-phenyl)-4-(5-isopropyl-[1,2,4]triazol-1-ylmethyl)-1H-[1,2,3]triazole]",2.3,40.9,–
"CCCc1ncn(Cc2cn(-c3ccc(Cl)cc3)nn2)n1 [Example 3, 1-(4-Chloro-phenyl)-4-(3-propyl-[1,2,4]triazol-1-ylmethyl)-1H-[1,2,3]triazole]",18.3,4.5,–
"Clc1ccc(-n2cc(Cn3ccnc3Cl)nn2)cc1 [Example 26, 4-(2-Chloro-imidazol-1-ylmethyl)-1-(4-chloro-phenyl)-1H-[1,2,3]triazole]",28.7,51.4,–
"Cc1nc(C)n(Cc2cn(-c3ccc(Cl)cc3)nn2)n1 [Example 1, 1-(4-Chloro-phenyl)-4-(3,5-dimethyl-[1,2,4]triazol-1-ylmethyl)-1H-[1,2,3]triazole]",12.4,31.5,–
"Cc1nccn1Cc1cn(-c2ccc(F)c(C(C)(F)F)c2)nn1 [Example 105, 1-[3-(1,1-Difluoro-ethyl)-4-fluoro-phenyl]-4-(2-methyl-imidazol-1-ylmethyl)-1H-[1,2,3]triazole]",–,–,23.1
"CCc1ncn(Cc2cn(-c3ccc(Cl)cc3)nn2)n1 [Example 6, 1-(4-Chloro-phenyl)-4-(3-ethyl-[1,2,4]triazol-1-ylmethyl)-1H-[1,2,3]triazole]",11.8,21.6,–
"CC(C)(C)c1ncnn1Cc1cn(-c2ccc(Cl)cc2)nn1 [Example 19, 4-(5-tert-Butyl-[1,2,4]triazol-1-ylmethyl)-1-(4-chloro-phenyl)-1H-[1,2,3]triazole]",8.2,14.5,–
"CCCc1ncnn1Cc1cn(-c2ccc(Cl)cc2)nn1 [Example 2, 1-(4-Chloro-phenyl)-4-(5-propyl-[1,2,4]triazol-1-ylmethyl)-1H-[1,2,3]triazole]",23.9,43,–
"Clc1ccc(-n2cc(Cn3cnc(C4CC4)n3)nn2)cc1 [Example 13, 1-(4-Chloro-phenyl)-4-(3-cyclopropyl-[1,2,4]triazol-1-ylmethyl)-1H-[1,2,3]triazole]",7.5,16.2,–
"Cc1nc(CO)nn1Cc1cn(-c2ccccc2)nn1 [Example 48, 4-(3-Hydroxymethyl-5-methyl-[1,2,4]triazol-1-ylmethyl)-1-phenyl-1H-[1,2,3]triazole]",29.6,-17.1,–
"Clc1ccc(-n2cc(Cn3nc(C4CC4)nc3C3CC3)nn2)cc1 [Example 10, 1-(4-Chlorophenyl)-4-(3,5-dicyclopropyl-[1,2,4]triazol-1-ylmethyl)-1-[1,2,3]triazole]",-6,3.5,–
"Clc1ccc(-n2cc(Cn3ncnc3C3CCCC3)nn2)cc1 [Example 14, 1-(4-Chloro-phenyl)-4-(5-cyclopentyl-[1,2,4]triazol-1-ylmethyl)-1H-[1,2,3]triazole]",–,49.6,–
"Cc1nc(C2CCC2)nn1Cc1cn(-c2ccc(Cl)cc2)nn1 [Example 22, 1-(4-Chloro-phenyl)-4-(3-cyclobutyl-5-methyl-[1,2,4]triazol-1-ylmethyl)-1H-[1,2,3]triazole]",14.5,-2.2,–
"Cc1nc(C2CCC2)n(Cc2cn(-c3ccc(Cl)cc3)nn2)n1 [Example 21, 1-(4-Chloro-phenyl)-4-(5-cyclobutyl-3-methyl-[1,2,4]triazol-1-ylmethyl)-1H-[1,2,3]triazole]",-1.6,6.8,–
"Cc1nc(C)n(Cc2cn(-c3ccccc3)nn2)n1 [Example 46, 4-(3,5-Dimethyl-[1,2,4]triazol-1-ylmethyl)-1-phenyl-1H-[1,2,3]triazole]",9.3,7.4,–
"Clc1ccc(-n2cc(Cn3ncnc3C3CC3)nn2)cc1 [Example 16, 1-(4-Chloro-phenyl)-4-(5-cyclopropyl-[1,2,4]triazol-1-ylmethyl)-1H-[1,2,3]triazole]",3.6,32.6,–
"FC(F)(F)c1ncn(Cc2cn(-c3ccc(Cl)cc3)nn2)n1 [Example 17, 1-(4-Chloro-phenyl)-4-(3-trifluoromethyl-[1,2,4]triazol-1-ylmethyl)-1H-[1,2,3]triazole]",19.9,12.5,–
Clc1ccc(-n2cc(Cn3cnc(C4CCCC4)n3)nn2)cc1 [Example 15],6.4,22.2,–
"Cc1ncn(Cc2cn(-c3ccc(Cl)cc3)nn2)n1 [Example 9, 1-(4-Chloro-phenyl)-4-(3-methyl-[1,2,4]triazol-1-ylmethyl)-1H-[1,2,3]triazole]",6.6,17.9,–
"Cc1ccc(C(=O)c2nccn2Cc2cn(-c3ccc(Cl)cc3)nn2)cc1 [Example 116, [1-[[1-(4-chlorophenyl)triazol-4-yl]methyl]imidazol-2-yl]-(p-tolyl)methanone]",-4.9,–,–
"CC(C)(C)c1ncn(Cc2cn(-c3ccc(Cl)cc3)nn2)n1 [Example 20, 4-(3-tert-Butyl-[1,2,4]triazol-1-ylmethyl)-1-(4-chloro-phenyl)-1H-[1,2,3]triazole]",27,15.3,–
"Cc1nncn1Cc1cn(-c2ccc(Cl)cc2)nn1 [Example 31, 1-(4-Chloro-phenyl)-4-(3-methyl-[1,2,4]triazol-4-ylmethyl)-1H-[1,2,3]triazole]",3.7,2.2,–
"Clc1ccc(-n2cc(Cn3ncnc3C3CCC3)nn2)cc1 [Example 11, 1-(4-Chloro-phenyl)-4-(5-cyclobutyl-[1,2,4]triazol-1-ylmethyl)-1H-[1,2,3]triazole]",8.7,41.5,–
"CC(C)c1ncn(Cc2cn(-c3ccc(Cl)cc3)nn2)n1 [Example 4, 1-(4-Chloro-phenyl)-4-(3-isopropyl-[1,2,4]triazol-1-ylmethyl)-1H-[1,2,3]triazole]",21.6,2,–
"CC(C)(C)c1nccn1Cc1cn(-c2ccc(Cl)cc2)nn1 [Example 30, 4-(2-tert-Butyl-imidazol-1-ylmethyl)-1-(4-chloro-phenyl)-1H-[1,2,3]triazole]",12.7,53.2,–
"Clc1ccc(-n2cc(Cn3cnc(C4CCC4)n3)nn2)cc1 [Example 12, 1-(4-Chloro-phenyl)-4-(3-cyclobutyl-[1,2,4]triazol-1-ylmethyl)-1H-[1,2,3]triazole]",-0.66,11,–
"Cc1ncnn1Cc1cn(-c2ccc(Cl)cc2)nn1 [Example 8, 1-(4-Chloro-phenyl)-4-(5-methyl-[1,2,4]triazol-1-ylmethyl)-1H-[1,2,3]triazole]",8.3,38.7,–
"CCc1ncnn1Cc1cn(-c2ccc(Cl)cc2)nn1 [Example 5, 1-(4-Chloro-phenyl)-4-(5-ethyl-[1,2,4]triazol-1-ylmethyl)-1H-[1,2,3]triazole]",1.2,30.1,–
